{"source": "patent US20070015723A1", "about": "“Antiviral oligonucleotides having a conserved G4 core sequence” (priority 1992, published 2007)", "note": "Strand notation (5' to 3'): a small letter for the sugar, then the base; units joined by * are phosphorothioate-linked, units joined directly phosphodiester-linked; [ ] holds rarer units or linkages, { } end groups; capitals alone tell only the bases. d = 2'-deoxy (DNA)"}
{"system": "HSV-1 (KOS)", "experiment": "HSV-1 infection ELISA assay", "type": "cell-based", "conditions": "50% inhibition of HSV replication relative to control infected cells; Table 1", "units": {"EC50": "nM"}}
{"substance": "ISIS 4664: GGG T GGG T ATA G AAG G GC, P = S, SEQ ID NO 48 (GGGTGGGTATAGAAGGGC; all phosphorothioate, sugars by position and methylation of C not given here)", "EC50": 200}
{"substance": "ISIS 4671: GGG T GGG T ATA GAA G, P = S, SEQ ID NO 49 (GGGTGGGTATAGAAG; all phosphorothioate, sugars by position not given here)", "EC50": 400}
{"substance": "ISIS 4692: T GGG T ATA G AAG GGC TCC, P = S, SEQ ID NO 51 (TGGGTATAGAAGGGCTCC; all phosphorothioate, sugars by position and methylation of C not given here)", "EC50": 1500}
{"substance": "ISIS 4693: G T ATA G AAG GGC TCC, P = S, SEQ ID NO 52 (GTATAGAAGGGCTCC; all phosphorothioate, sugars by position and methylation of C not given here)", "EC50": "> 3000"}
{"substance": "ISIS 4694: TA G AAG GGC TCC, P = S, SEQ ID NO 53 (TAGAAGGGCTCC; all phosphorothioate, sugars by position and methylation of C not given here)", "EC50": "> 3000"}
{"system": "HSV-1 (KOS)", "experiment": "HSV-1 infection ELISA assay", "type": "cell-based", "conditions": "HSV-1 (KOS strain); Table 9; some in duplicate", "units": {"EC50": "nM"}}
{"substance": "ISIS 4111: CCTGGATGATGCTGGGGTAC, phosphorothioate, SEQ ID NO 131 (CCTGGATGATGCTGGGGTAC; antisense; all phosphorothioate, sugars by position and methylation of C not given here)", "EC50": 600}
{"substance": "ISIS 4112: GACTGGGGCGAGGTAGGGGT, phosphorothioate, SEQ ID NO 132 (GACTGGGGCGAGGTAGGGGT; antisense; all phosphorothioate, sugars by position and methylation of C not given here)", "EC50": 300}
{"substance": "ISIS 4341: TGGAGACCGGGGTTGGGGAA, phosphorothioate, SEQ ID NO 127 (TGGAGACCGGGGTTGGGGAA; antisense; all phosphorothioate, sugars by position and methylation of C not given here)", "EC50": 200}
{"substance": "ISIS 4342: TTGGAGACCGGGGTTGGGGA, phosphorothioate, SEQ ID NO 128 (TTGGAGACCGGGGTTGGGGA; antisense; all phosphorothioate, sugars by position and methylation of C not given here)", "EC50": 200}
{"substance": "ISIS 4346: GAGGTGGGCTTCGGTGGTGA, phosphorothioate, SEQ ID NO 123 (GAGGTGGGCTTCGGTGGTGA; antisense; all phosphorothioate, sugars by position and methylation of C not given here)", "EC50": 500}
{"substance": "ISIS 4348: GGGTTGGAGACCGGGGTTGG, phosphorothioate, SEQ ID NO 125 (GGGTTGGAGACCGGGGTTGG; all phosphorothioate, sugars by position and methylation of C not given here)", "EC50": 400}
{"substance": "ISIS 4349: GGTTGGAGACCGGGGTTGGG, phosphorothioate, SEQ ID NO 126 (GGTTGGAGACCGGGGTTGGG; antisense; all phosphorothioate, sugars by position and methylation of C not given here)", "EC50": 250}
{"substance": "ISIS 4350: GACGGTCAAGGGGAGGGTTGG, phosphorothioate, SEQ ID NO 129 (GACGGTCAAGGGGAGGGTTGG; all phosphorothioate, sugars by position and methylation of C not given here)", "EC50": 250}
{"substance": "ISIS 4393: GGGGTTGGGGAATGAATCCC, phosphorothioate, SEQ ID NO 124 (GGGGTTGGGGAATGAATCCC; antisense; all phosphorothioate, sugars by position and methylation of C not given here)", "EC50": 200}
{"substance": "ISIS 4399: GTCCCGACTGGGGCGAGGAT, phosphorothioate, SEQ ID NO 133 (GTCCCGACTGGGGCGAGGAT; antisense; all phosphorothioate, sugars by position and methylation of C not given here)", "EC50": 250}
{"substance": "ISIS 4435: GGGGAGACCGAAACCGCAAA, phosphorothioate, SEQ ID NO 130 (GGGGAGACCGAAACCGCAAA; antisense; all phosphorothioate, sugars by position and methylation of C not given here)", "EC50": 220}
{"target": "T1, human type II phospholipase A2 (Homo sapiens, UniProt P14555)", "T1 sequence (P14555 21-144)": "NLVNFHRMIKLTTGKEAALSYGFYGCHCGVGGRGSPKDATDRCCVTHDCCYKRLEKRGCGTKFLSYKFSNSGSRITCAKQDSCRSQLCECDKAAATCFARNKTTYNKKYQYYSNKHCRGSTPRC", "experiment": "Human type II phospholipase A2 enzyme assay (3H-oleic acid labelled E. coli substrate)", "type": "biochemical", "conditions": "1 μM; Table 4", "units": {"% Inhibition (1 μM)": "%"}}
{"substance": "ISIS 3688: TGGCCTCACCGATCCGTTGCA, phosphorothioate, SEQ ID NO 91 (dT*dG*dG*dC*dC*dT*dC*dA*dC*dC*dG*dA*dT*dC*dC*dG*dT*dT*dG*dC*dA)", "% Inhibition (1 μM)": 43.1}
{"substance": "ISIS 3694: ACAGCAGCTGTGAGGAGACAC, phosphorothioate, SEQ ID NO 92 (dA*dC*dA*dG*dC*dA*dG*dC*dT*dG*dT*dG*dA*dG*dG*dA*dG*dA*dC*dA*dC)", "% Inhibition (1 μM)": 28.2}
{"substance": "ISIS 3697: ACTCTTACCACAGGTGATTCT, phosphorothioate, SEQ ID NO 93 (dA*dC*dT*dC*dT*dT*dA*dC*dC*dA*dC*dA*dG*dG*dT*dG*dA*dT*dT*dC*dT)", "% Inhibition (1 μM)": 39}
{"substance": "ISIS 3712: AGGAGTCCTGTTTTGAAATCA, phosphorothioate, SEQ ID NO 94 (dA*dG*dG*dA*dG*dT*dC*dC*dT*dG*dT*dT*dT*dT*dG*dA*dA*dA*dT*dC*dA)", "% Inhibition (1 μM)": 31.8}
{"substance": "ISIS 4133: AGTGCACGTTGAGTATGTGAG, phosphorothioate, SEQ ID NO 95 (dA*dG*dT*dG*dC*dA*dC*dG*dT*dT*dG*dA*dG*dT*dA*dT*dG*dT*dG*dA*dG)", "% Inhibition (1 μM)": 37.3}
{"substance": "ISIS 4149: CTACGGCAGAGACGAGATAGC, phosphorothioate, SEQ ID NO 96 (dC*dT*dA*dC*dG*dG*dC*dA*dG*dA*dG*dA*dC*dG*dA*dG*dA*dT*dA*dG*dC)", "% Inhibition (1 μM)": 20.2}
{"target": "T1, human type II phospholipase A2", "experiment": "Human type II phospholipase A2 enzyme assay (3H-oleic acid labelled E. coli substrate)", "type": "biochemical", "conditions": "1 μM; Table 5, two separate experiments", "units": {"% Inhibition (1 μM)": "%"}}
{"substance": "ISIS 4946: GGG TGG GAA TAG, SEQ ID NO 107 (dG*dG*dG*dT*dG*dG*dG*dA*dA*dT*dA*dG; aptamer)", "% Inhibition (1 μM)": 73.2}
{"substance": "ISIS 4947: AGG TGG GTA TAG, SEQ ID NO 103 (dA*dG*dG*dT*dG*dG*dG*dT*dA*dT*dA*dG; aptamer)", "% Inhibition (1 μM)": 22.7}
{"substance": "ISIS 4955: GGG AGG GTA TAG, SEQ ID NO 104 (dG*dG*dG*dA*dG*dG*dG*dT*dA*dT*dA*dG; aptamer)", "% Inhibition (1 μM)": 97.5}
{"substance": "ISIS 4956: GGG CGG GTA TAG, SEQ ID NO 105 (dG*dG*dG*dC*dG*dG*dG*dT*dA*dT*dA*dG; aptamer)", "% Inhibition (1 μM)": 92.0}
{"substance": "ISIS 4957: GGG TGG ATA TAG, SEQ ID NO 106 (dG*dG*dG*dT*dG*dG*dA*dT*dA*dT*dA*dG; aptamer)", "% Inhibition (1 μM)": 81.9}
{"substance": "ISIS 4962: GGG TGG GTA T, SEQ ID NO 108 (dG*dG*dG*dT*dG*dG*dG*dT*dA*dT)", "% Inhibition (1 μM)": 36.3}
{"substance": "TAG AAG GGC TCC: truncated version of ISIS 3196, SEQ ID NO 101 (dT*dA*dG*dA*dA*dG*dG*dG*dC*dT*dC*dC)", "% Inhibition (1 μM)": 0}
{"substance": "TGG GTA TAG AAG GGC TCC: truncated version of ISIS 3196, SEQ ID NO 99 (dT*dG*dG*dG*dT*dA*dT*dA*dG*dA*dA*dG*dG*dG*dC*dT*dC*dC)", "% Inhibition (1 μM)": 84.6}
{"substance": "TGG GTA TAG AAG GGC: truncated version of ISIS 3196, SEQ ID NO 102 (dT*dG*dG*dG*dT*dA*dT*dA*dG*dA*dA*dG*dG*dG*dC)", "% Inhibition (1 μM)": 33.5}
